Results as given in patent US11987588B2, “Modulators of the beta-3 adrenergic receptor useful for the treatment or prevention of heart failure and disorders related thereto” (Arena Pharmaceuticals, Inc., priority 2017, dated 2024).

Target: Beta-3 Adrenergic Receptor (Homo sapiens (Human), UniProt P13945)
Assay: Homogeneous Time-Resolved Fluorescence (HTRF) cAMP antagonist assay, IC50 determination
Format: cell-based
Settings: CHO-K1 cells stably expressing recombinant receptor, isoproterenol at EC90
In short: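 In this functional readout, recombinant CHO-K1 cells received compound, then isoproterenol at its EC90. After 1 h at room temperature, cAMP levels were determined by HTRF using an on-plate standard curve, and IC50 values were fitted.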

Beta-3 Adrenergic Receptor, sequence (P13945 whole entry, species assumed): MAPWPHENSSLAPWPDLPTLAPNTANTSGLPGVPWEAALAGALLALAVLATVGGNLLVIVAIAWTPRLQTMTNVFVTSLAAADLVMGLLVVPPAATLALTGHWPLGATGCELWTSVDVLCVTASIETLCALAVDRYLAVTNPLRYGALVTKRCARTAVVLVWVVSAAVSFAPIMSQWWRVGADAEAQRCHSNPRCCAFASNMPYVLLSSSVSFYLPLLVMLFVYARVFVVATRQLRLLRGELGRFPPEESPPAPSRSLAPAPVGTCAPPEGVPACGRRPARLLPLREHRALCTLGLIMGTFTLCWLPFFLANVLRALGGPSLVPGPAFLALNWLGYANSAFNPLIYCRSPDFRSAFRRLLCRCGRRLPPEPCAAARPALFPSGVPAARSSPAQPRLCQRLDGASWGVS

| SMILES | IC50 |
| --- | --- |
| CNS(=O)(=O)c1cccc(OC[C@@H](O)CNC2COC3(CCN(S(=O)(=O)c4cccc(-c5ccn(C)c5)c4)CC3)C2)c1 (stereo partly drawn) [Compound 76, 3-((2S)-2-hydroxy-3-(8-(3-(1-methyl-1H-pyrrol-3-yl)phenylsulfonyl)-1-oxa-8-azaspiro[4.5]decan-3-ylamino)propoxy)-N-methylbenzenesulfonamide] | 26.5 nM |
| CNS(=O)(=O)c1cccc(OC[C@@H](O)CN[C@H]2COC3(CCN(S(=O)(=O)c4ccc5ccccc5c4)CC3)C2)c1 [Compound 30, 3—((S)-2-hydroxy-3-((R)-8-(naphthalen-2-ylsulfonyl)-1-oxa-8-azaspiro[4.5]decan-3-ylamino)propoxy)-N-methylbenzenesulfonamide] | 4.41 nM |
| CCn1cc(S(=O)(=O)N2CCC3(CC2)C[C@@H](NC[C@H](O)COc2cccc(S(=O)(=O)NC)c2)CO3)c(=O)c2ccc(C)cc21 [Compound 531, 3-((S)-3-((R)-8-(1-ethyl-7-methyl-4-oxo-1,4-dihydroquinolin-3-ylsulfonyl)-1-oxa-8-azaspiro[4.5]decan-3-ylamino)-2-hydroxypropoxy)-N-methylbenzenesulfonamide] | 50.5 nM |
| CNS(=O)(=O)c1cccc(OC[C@@H](O)CNC2COC3(CCN(S(=O)(=O)c4cc(-c5ccc(CN)cc5)cc5c4OCC5)CC3)C2)c1 (stereo partly drawn) [Compound 358, 3-((2S)-3-(8-(5-(4-(aminomethyl)phenyl)-2,3-dihydrobenzofuran-7-ylsulfonyl)-1-oxa-8-azaspiro[4.5]decan-3-ylamino)-2-hydroxypropoxy)-N-methylbenzenesulfonamide] | 16.1 nM |
| CNS(=O)(=O)c1cccc(OC[C@@H](O)CNC2COC3(CCN(S(=O)(=O)c4cccc(-c5ccc(N)nc5)c4)CC3)C2)c1 (stereo partly drawn) [Compound 103, 3-((2S)-3-(8-(3-(6-aminopyridin-3-yl)phenylsulfonyl)-1-oxa-8-azaspiro[4.5]decan-3-ylamino)-2-hydroxypropoxy)-N-methylbenzenesulfonamide] | 10.5 nM |
| CCNS(=O)(=O)c1cccc(OC[C@@H](O)CNC2COC3(CCN(S(=O)(=O)c4c(C)noc4C)CC3)C2)c1 (stereo partly drawn) [Compound 232, 3-((2S)-3-(8-(3,5-dimethylisoxazol-4-ylsulfonyl)-1-oxa-8-azaspiro[4.5]decan-3-ylamino)-2-hydroxypropoxy)-N-ethylbenzenesulfonamide] | 188 nM |
| CN(C)CCCNS(=O)(=O)c1cccc(OC[C@@H](O)CNC2COC3(CCN(S(=O)(=O)c4ccc5c(c4)CCCC5)CC3)C2)c1 (stereo partly drawn) [Compound 314, N-(3-(dimethylamino)propyl)-3-((2S)-2-hydroxy-3-(8-(5,6,7,8-tetrahydronaphthalen-2-ylsulfonyl)-1-oxa-8-azaspiro[4.5]decan-3-ylamino)propoxy)benzenesulfonamide] | 716 nM |
| CNS(=O)(=O)c1cccc(OC[C@@H](O)CNC2COC3(CCN(S(=O)(=O)c4ccc5c(c4)OCCO5)CC3)C2)c1 (stereo partly drawn) [Compound 332, 3-((2S)-3-(8-(2,3-dihydrobenzo[b][1,4]dioxin-6-ylsulfonyl)-1-oxa-8-azaspiro[4.5]decan-3-ylamino)-2-hydroxypropoxy)-N-methylbenzenesulfonamide] | 17.9 nM |
| CNS(=O)(=O)c1cccc(OC[C@@H](O)CNC2COC3(CCN(S(=O)(=O)c4cccc(C)c4C)CC3)C2)c1 (stereo partly drawn) [Compound 265, 3-((2S)-3-(8-(2,3-dimethylphenylsulfonyl)-1-oxa-8-azaspiro[4.5]decan-3-ylamino)-2-hydroxypropoxy)-N-methylbenzenesulfonamide] | 28.8 nM |
| CNS(=O)(=O)c1cccc(OC[C@@H](O)CNC2COC3(CCN(S(=O)(=O)c4cc(C)oc4C(F)(F)F)CC3)C2)c1 (stereo partly drawn) [Compound 162, 3-((2S)-2-hydroxy-3-(8-(5-methyl-2-(trifluoromethyl)furan-3-ylsulfonyl)-1-oxa-8-azaspiro[4.5]decan-3-ylamino)propoxy)-N-methylbenzenesulfonamide] | 42.6 nM |
| CNS(=O)(=O)c1cccc(OC[C@@H](O)CNC2COC3(CCN(S(=O)(=O)c4ccc(OC)c(C)c4C)CC3)C2)c1 (stereo partly drawn) [Compound 242, 3-((2S)-2-hydroxy-3-(8-(4-methoxy-2,3-dimethylphenylsulfonyl)-1-oxa-8-azaspiro[4.5]decan-3-ylamino)propoxy)-N-methylbenzenesulfonamide] | 420 nM |
| CNS(=O)(=O)c1cccc(OC[C@@H](O)CNC2COC3(CCN(S(=O)(=O)c4cc(OC)ccc4C#N)CC3)C2)c1 (stereo partly drawn) [Compound 263, 3-((2S)-3-(8-(2-cyano-5-methoxyphenylsulfonyl)-1-oxa-8-azaspiro[4.5]decan-3-ylamino)-2-hydroxypropoxy)-N-methylbenzenesulfonamide] | 30.8 nM |
| CCn1cc(S(=O)(=O)N2CCC3(CC2)C[C@@H](NC[C@H](O)COc2cccc(S(=O)(=O)NC)c2)CO3)c(=O)c2ccccc21 [Compound 492, 3-((S)-3-((R)-8-(1-ethyl-4-oxo-1,4-dihydroquinolin-3-ylsulfonyl)-1-oxa-8-azaspiro[4.5]decan-3-ylamino)-2-hydroxypropoxy)-N-methylbenzenesulfonamide] | 33 nM |
| NS(=O)(=O)c1cccc(OC[C@@H](O)CN[C@H]2COC3(CCN(S(=O)(=O)c4ccc5ncccc5c4)CC3)C2)c1 [Compound 566, 3-((S)-2-hydroxy-3-((R)-8-(quinolin-6-ylsulfonyl)-1-oxa-8-azaspiro[4.5]decan-3-ylamino)propoxy)benzenesulfonamide] | 78.6 nM |
| CNS(=O)(=O)c1cccc(OC[C@@H](O)CNC2COC3(CCN(S(=O)(=O)c4cccc(-c5cn[nH]c5)c4)CC3)C2)c1 (stereo partly drawn) [Compound 64, 3-((2S)-3-(8-(3-(1H-pyrazol-4-yl)phenylsulfonyl)-1-oxa-8-azaspiro[4.5]decan-3-ylamino)-2-hydroxypropoxy)-N-methylbenzenesulfonamide] | 11.1 nM |
| CNS(=O)(=O)c1cccc(OC[C@@H](O)CN[C@H]2COC3(CCN(S(=O)(=O)c4ccc5[nH]cnc5c4)CC3)C2)c1 [Compound 503, 3-((S)-3-((R)-8-(1H-benzo[d]imidazol-5-ylsulfonyl)-1-oxa-8-azaspiro[4.5]decan-3-ylamino)-2-hydroxypropoxy)-N-methylbenzenesulfonamide] | 28.9 nM |
| CNS(=O)(=O)c1cccc(OC[C@@H](O)CNC2COC3(CCN(S(=O)(=O)c4cccc(C)c4F)CC3)C2)c1 (stereo partly drawn) [Compound 160, 3-((2S)-3-(8-(2-fluoro-3-methylphenylsulfonyl)-1-oxa-8-azaspiro[4.5]decan-3-ylamino)-2-hydroxypropoxy)-N-methylbenzenesulfonamide] | 14.6 nM |
| CN(C)S(=O)(=O)c1cccc(OC[C@@H](O)CNC2COC3(CCN(S(=O)(=O)c4cccc(-c5ccc(S(N)(=O)=O)cc5)c4)CC3)C2)c1 (stereo partly drawn) [Compound 274, 3′-(3-((S)-3-(3-(N,N-dimethylsulfamoyl)phenoxy)-2-hydroxypropylamino)-1-oxa-8-azaspiro[4.5]decan-8-ylsulfonyl)biphenyl-4-sulfonamide] | 21.1 nM |
| CNS(=O)(=O)c1cccc(OC[C@@H](O)CNC2COC3(CCN(S(=O)(=O)c4cccc(-c5ccc(CC(=O)O)cc5)c4)CC3)C2)c1 (stereo partly drawn) [Compound 87, 2-(3′-(3-((S)-2-hydroxy-3-(3-(N-methylsulfamoyl)phenoxy)propylamino)-1-oxa-8-azaspiro[4.5]decan-8-ylsulfonyl)biphenyl-4-yl)acetic acid] | 66.1 nM |
| CNS(=O)(=O)c1cccc(OC[C@@H](O)CNC2COC3(CCN(S(=O)(=O)c4c(Cl)ccc5nonc45)CC3)C2)c1 (stereo partly drawn) [Compound 262, 3-((2S)-3-(8-(5-chlorobenzo[c][1,2,5]oxadiazol-4-ylsulfonyl)-1-oxa-8-azaspiro[4.5]decan-3-ylamino)-2-hydroxypropoxy)-N-methylbenzenesulfonamide] | 54.3 nM |
| CNS(=O)(=O)c1cccc(OC[C@@H](O)CN[C@H]2COC3(CCN(S(=O)(=O)c4cccc(-c5ccc(OCC#N)cc5)c4)CC3)C2)c1 [Compound 298, 3-((S)-3-((R)-8-(4′-(cyanomethoxy)biphenyl-3-ylsulfonyl)-1-oxa-8-azaspiro[4.5]decan-3-ylamino)-2-hydroxypropoxy)-N-methylbenzenesulfonamide] | 26 nM |
| NS(=O)(=O)c1cccc(OC[C@@H](O)CN[C@H]2COC3(CCN(S(=O)(=O)c4ccc5c(c4)CCCO5)CC3)C2)c1 [Compound 565, 3-((S)-3-((R)-8-(chroman-6-ylsulfonyl)-1-oxa-8-azaspiro[4.5]decan-3-ylamino)-2-hydroxypropoxy)benzenesulfonamide] | 51.2 nM |
| CCn1ccc(=O)c(S(=O)(=O)N2CCC3(CC2)C[C@@H](NC[C@H](O)COc2cccc(S(N)(=O)=O)c2)CO3)c1 [Compound 587, 3-((S)-3-((R)-8-(1-ethyl-4-oxo-1,4-dihydropyridin-3-ylsulfonyl)-1-oxa-8-azaspiro[4.5]decan-3-ylamino)-2-hydroxypropoxy)benzenesulfonamide] | 2390 nM |
| CCC(C)c1ccc(S(=O)(=O)N2CCC3(CC2)CC(NC[C@H](O)COc2cccc(S(=O)(=O)NC)c2)CO3)cc1 (stereo partly drawn) [Compound 22, 3-((2S)-3-(8-(4-sec-butylphenylsulfonyl)-1-oxa-8-azaspiro[4.5]decan-3-ylamino)-2-hydroxypropoxy)-N-methylbenzenesulfonamide] | 15 nM |
| CNS(=O)(=O)c1cccc(OC[C@@H](O)CN[C@H]2COC3(CCN(c4ncc(C(F)(F)F)cn4)CC3)C2)c1 [Compound 583, 3-((S)-2-hydroxy-3-((R)-8-(5-(trifluoromethyl)pyrimidin-2-yl)-1-oxa-8-azaspiro[4.5]decan-3-ylamino)propoxy)-N-methylbenzenesulfonamide] | 1840 nM |
| NS(=O)(=O)c1cccc(OC[C@@H](O)CNC2COC3(CCN(S(=O)(=O)c4ccc5ccccc5c4)CC3)C2)c1 (stereo partly drawn) [Compound 306, 3-((2S)-2-hydroxy-3-(8-(naphthalen-2-ylsulfonyl)-1-oxa-8-azaspiro[4.5]decan-3-ylamino)propoxy)benzenesulfonamide] | 65.4 nM |
